Assay results taken from patent publication US11246856B2, “Methods of treating resistant cancers” (University of Maryland, Baltimore, priority 2017, dated 2022).
Entries after “also recorded” stand apart in the source; their conditions may differ.

Key:
[1] = tested on: A375 cells; assay: Cell proliferation, monolayer A375 cells; type: cell-based; conditions: PLX4032 treatment, FIG. 1D
Method: (§1) A375, SK-MEL-5 and SK-MEL-28 cell lines were maintained in DMEM growth medium containing 10% FCS, 2 mM L-glutamine and 1 mM sodium pyruvate. The WM3248 cells were maintained in MCDB153:L15 (4:1) growth medium containing 2% FCS, […] insulin and 1.68 mM CaCl2. To create PLX4032-resistant cells, A375, SK-MEL-5, SK-MEL-28 and WM3248 cells were treated with […] in monolayer culture in growth medium for several weeks. The surviving cells were then expanded and cultured in increasing doses of PLX4032 up to […]. The resulting PLX4032-resistant cells, designated PLX4032-resistant (e.g., A375-PLX-R) were routinely maintained in the presence of […] PLX4032.

[2] = tested on: A375-PLX-R cells; assay: Cell proliferation, PLX4032-resistant A375-PLX-R cells; type: cell-based; conditions: FIG. 1A
Method: as §1

[3] = tested on: A375 cells; assay: Immunoblot of signaling, cell cycle and apoptosis markers in A375 cells; type: cell-based
Method: (§2) Equivalent amounts of protein were electrophoresed on denaturing and reducing 10% polyacrylamide gels and transferred to nitrocellulose membrane. The membrane was blocked by 5% nonfat dry milk for one hour and incubated with 1:1000 primary antibody in 5% nonfat dry milk. Blots were rinsed in TBS-T and then incubated with secondary antibodies (1:5000) for 2 h. Secondary antibody binding was visualized using ECL Prime (Amersham) chemiluminescence detection technology. For immunostaining, cells were harvested, suspended in growth medium, and plated in LAB-TEK II Chamber Slide System. After 24 h, the cells were fixed with 4% paraformaldehyde at room temperature for 15 min, washed three with phosphate-buffered saline, in 0.1% Triton X-100 for 15 min, washed with phosphate-buffered saline, and blocked for 1 h with phosphate-buffered saline containing 7.5% fetal calf serum. Primary antibodies were added, and the slides incubated overnight at 4° C. Cells were then washed three times with phosphate-buffered saline and incubated 1 h with the appropriate Alexa Flour fluorescence probe-conjugated secondary antibody. After additional washing, the cells were stained with DAPI for 10 min prior to imaging.

[4] = tested on: A375-PLX-R cells; assay: Immunoblot of ERK1/2 activity in A375-PLX-R cells; type: cell-based; conditions: TEAD intact versus knockdown, FIG. 3F
Method: as §2

[5] = tested on: A375 spheroid cell-derived tumors; assay: Tumor xenograft assay, A375 spheroid cell-derived tumors; type: in vivo, NSG mice
Method: (§3) Cells were grown for ten days as spheroids and a single cell suspension, prepared by trypsin digestion, was resuspended in phosphate buffered saline containing 30% Matrigel and 100 μl containing 0.1 million cells were injected subcutaneously at the two front flanks of NOD/scid/IL2 receptor gamma-knockout mice (NSG mice) using a 26.5 gauge needle. PLX4032 was dissolved in phosphate-buffered saline containing 10% DMSO and delivered at 20 mg/kg by oral gavage in […] three times per week (M/W/F). Verteporfin was dissolved in phosphate-buffered saline containing 10% DMSO and 0-100 mg/kg was delivered by intraperitoneal injection of […] three times per week (M/W/F). Five mice were used per group (two tumors per mouse) and treatment was initiated two days after tumor cell injection. Tumor growth was monitored by measuring tumor diameter and calculating tumor volume using the formula, volume=4/3π×(diameter/2)^3. Mice were euthanized by injection of 250 μl of a 2.5% stock of Avertin per mouse followed by cervical dislocation of the neck. Tumor samples were harvested to prepare extract for immunoblot and sections for immunostaining. These experiments were reviewed and approved by the University of Maryland-Baltimore Institutional Animal Care and Use Committee. The plotted values are mean±SEM and significance were determined using the students t-test.

[6] = tested on: tumor-derived A375 cells; assay: Matrigel invasion of tumor-derived A375 cells; type: cell-based; conditions: sensitive (A375) cells, invasion assayed without drug, FIG. 6G
Method: (§4) Tumors were initiated and treated with PLX4032 or verteporfin as above. At 4 weeks, the tumors were removed, mechanically dissociated and dispersed as single cell suspensions with 0.25% trypsin for 10 min and plated as monolayer cultures. After 24 h, the cells were harvested and seeded at 25,000 cells/well atop a 0.1 ml matrigel layer in Millicell (1 cm diameter, […]) chambers in the presence of a serum gradient (38). After 18 h, the membranes were stained with DAPI and the nuclei of migrated cells were visualized by inverted fluorescence microscopy (38).

[7] = tested on: tumor-derived A375-PLX-R cells; assay: Matrigel invasion of tumor-derived A375-PLX-R cells; type: cell-based; conditions: resistant (A375-PLX-R) cells, invasion assayed without drug, FIG. 6G
Method: as §4

[8] = tested on: A375 cells; assay: Immunofluorescence of YAP1/TAZ subcellular distribution; type: cell-based; conditions: control versus PLX4032-treated A375 cells, FIG. 2D
Method: as §2

[9] = tested on: YAP1, TAZ and TEAD in A375 and A375-PLX-R cells; assay: YAP1/TAZ/TEAD mRNA and protein level after verteporfin, monolayer cells; type: cell-based
Method: as §2
Total RNA was isolated using Illustra RNAspin mini kit (GE Healthcare), and 1 μg of RNA was used for cDNA synthesis. Gene expression was measured by real time PCR using Light Cycler 480 SYBR Green I Master Mix (04-707 516 001) from Roche Diagnostics (Indianapolis, Ind.). The signals were normalized using cyclophilin A control primers. The gene specific primers used for detection of mRNA levels were as follows: cyclophilin A (forward, 5′-[…] (SEQ ID NO: 3); reverse, 5′-[…] (SEQ ID NO: 4)), TAZ (forward, 5′-GTATCCCAGCCAATC TCG (SEQ ID NO: 5); reverse, 5′-TTCTGAGTGGGGTGGTTC (SEQ ID NO: 6)) and YAP1 (forward, 5′-[…] (SEQ ID NO: 7); reverse, 5′-[…], (SEQ ID NO: 8)) (11).
To understand the mechanism of verteporfin action, monolayer A375 and A375-PLX-R cells were treated with […] verteporfin for 24 h and the impact on YAP1/TAZ mRNA and protein level was monitored. […] The proteasome is known to regulate YAP1/TAZ level (29,30) and so whether the proteasome was responsible for the observed reductions was examined.

[10] = tested on: melanoma cell tumor formation (MCS cells); assay: Tumor xenograft assay, verteporfin alone (FIGS. 6D-6F); type: in vivo, NSG mice; conditions: verteporfin intraperitoneal, tumor cell line not stated
Method: as §3

[11] = tested on: tumor-derived cells; assay: Matrigel invasion of cells from verteporfin-treated tumors; type: cell-based; conditions: FIG. 6H
Method: as §4

| Compound | A375 cell proliferation [1] | proliferation of A375-PLX-R cells [2] | apoptosis (cleaved PARP accumulation, procaspase 8 and 9 levels) [3] | cyclin B and cyclin A level ([3]; FIGS. 3A-3B) | p21Cip1 and p27 level ([3]; FIGS. 3A-3B) | ERK1/2 signaling / phosphorylation ([3]; FIGS. 3A-3B, 3F) | ERK1/2 activity [4] | tumor growth ([5]; PLX4032 20 mg/kg oral gavage three times per week, FIG. 6B) | p21Cip1 level in tumors ([5]; PLX4032-treated A375 tumors, FIG. 6C) | matrigel invasion of tumor-derived cells after in vivo treatment [6] | matrigel invasion of tumor-derived cells after in vivo treatment [7] | YAP1 intracellular distribution [8] | level of YAP1 or TAZ mRNA ([9]; 1 mM verteporfin, 24 h, monolayer, FIG. 4F) | YAP1 and TAZ protein levels ([9]; 1 mM verteporfin, 24 h, monolayer, FIG. 4G) | TEAD transcription factor levels ([9]; verteporfin treatment, FIG. 4H) | YAP1 and TAZ level in tumors ([10]; FIG. 6F) | tumor size / tumor formation ([10]; FIGS. 6D-6E) | matrigel invasion of tumor-derived cells after in vivo treatment [11] |
| --- | --- | --- | --- | --- | --- | --- | --- | --- | --- | --- | --- | --- | --- | --- | --- | --- | --- | --- |
| CCCS(=O)(=O)Nc1ccc(F)c(C(=O)c2c[nH]c3ncc(-c4ccc(Cl)cc4)cc23)c1F [PLX4032] | reduces | not suppressed | enhances | reduced | increased | suppressed; also recorded: reduced | only reduced in A375-PLX-R cells following TEAD knockdown and PLX4032 treatment | suppressed | slightly elevated | does not suppress | does not suppress | no major change | – | – | – | – | – | – |
| verteporfin | – | – | – | – | – | – | – | – | – | – | – | – | did not impact | reduced | reduced | suppressed | reduced | reduced |
